The values below come from patent US20140296143A1, “Angiotensin-(1-7) As A Chemoprevention Agent” (Wake Forest Innovations, priority 2008, published 2014).

The nature of data set [1]: Plasma Ang-(1-7) level after intravenous infusion in mice. It is filed as in vivo, mouse.
Data set [2] concerns A549 human lung tumor xenografts. Nature of the data set: A549 human lung tumor xenograft in athymic mice, intravenous infusion. It is filed as in vivo, mouse. As for the experimental part: For reverse-transcriptase real-time PCR, RNA was isolated from cells or tissue, using the TRIzol reagent (GIBCO Invitrogen Corp., Carlsbad, Calif.), as directed by the manufacturer. The RNA concentration and integrity were assessed using an Agilent 2100 Bioanalyzer with an RNA 6000 nano LabChip (Agilent Technologies, Palo Alto, Calif.). Approximately 1 μg of total RNA was reverse transcribed using avian myeloblastosis virus reverse transcriptase (RT) in a 20 μL mixture containing deoxyribonucleotides, random hexamers and RNase inhibitor in RT buffer. Heating the RT reaction product at 95° C. terminated the reaction. For real-time polymerase chain reaction (PCR), 2 μL of the resultant cDNA was added to TaqMan Universal PCR Master Mix (Applied Biosystems, Foster City, Calif.) with a gene-specific primer/probe set (Applied Biosystems, Foster City, Calif.) and amplification was performed on an ABI 7000 Sequence Detection System. The mixtures were heated at 50° C. for 2 min, at 95° C. for 10 min followed by 40 cycles at 95° C. for 15 sec and 60° C. for 1 min. All reactions were performed in triplicate and 18S ribosomal RNA, amplified using the TaqMan Ribosomal RNA Control Kit (Applied Biosystems), served as an internal control. The results were quantified as Ct values, where Ct is defined as the threshold cycle of PCR at which amplified product is first detected, and expressed as the ratio of target/control (Relative Gene Expression).
Quiescent A549 lung cancer cells or tumor tissue cut into approximately 1-2 mm^2 size pieces were homogenized in phosphate-buffered saline (PBS; 50 mM NaPO4, pH=7.2, 100 mM NaCl). Plasma membranes were isolated by centrifugation and solubilized by boiling in 3% SDS-10% B-mercaptoethanol. PBS was added to the membrane fraction to solubilize the proteins. The protein concentration was measured by a modification of the Lowry method. Solubilized protein (20 μg/well) from saline- and Ang-(1-7)-treated animals were separated by SDS-polyacrylamide gel electrophoresis and transferred to polyvinyl membranes (Amersham Pharmacia, Piscataway, N.J.). Non-specific binding was blocked with 5% blotto (5% evaporated milk, 0.1% Triton X-100 in Tris-buffered saline (TBS; 50 mM Tris-HCl, pH 7.4, 50 mM NaCl). The membranes were incubated with a COX-2 antibody (1:1000; Cayman Chemicals, Ann Arbor, Mich.) followed by a goat anti-rabbit antibody (1:1000; Amersham, Piscataway, N.J.) coupled to horseradish peroxidase. Chemiluminescence reagents were added to visualize the immunoreactive bands, which were quantified by densitometry. An antibody to actin (Sigma, St Louis, Mo.) served as the loading control.
Male or female athymic mice (15-20 g, 2-4 weeks of age, Charles River Laboratory, Wilmington, Mass.) were housed in cages with HEPA-filtered air (12-hour light/dark cycle) and ad libitum access to food and autoclaved water. All procedures complied with the policies of the Wake Forest University Animal Care and Use Committee. Mice were inoculated subcutaneously in the lower left flank with approximately 1.9×10^6 A549 lung cancer cells or ZR-75-1 breast cancer cells suspended in 200 μL of cold Matrigel (BD Biosciences, Bedford, Mass.). […] The mice were anesthetized by inhalation with 1.5% isoflurane. […] The minipumps also contained heparin (25 U/mL) to maintain patency of the catheter. On day 28 of the infusion, the animals were anesthetized with halothane and sacrificed by decapitation. Alternatively, the mice received daily subcutaneous injections of Ang-(1-7) in saline or saline alone.
Tumors were fixed with 4% paraformaldehyde for 24 h and incubated in 70% ethanol for 48 h prior to embedding in paraffin. The embedded tumors were cut into five micron thick sections and stained with hematoxylin and eosin to determine morphology. […]
In general terms: Xenograft models place foreign cells or tissue in a host animal.

Data set [3] has as its system MAP kinase kinase 5 (MEK5). The data set is described as follows: MEK5 expression in SK-LU-1 cells by RT-PCR and Western analysis. It is filed as cell-based, human. The following applies: SK-LU-1, 1% serum, 10 nM, 4 and 8 h. As for the experimental part:
RNA, isolated from cells or tissue, using the TRIzol reagent (GIBCO Invitrogen, Carlsbad, Calif.), was subjected to reverse transcriptase/real-time polymerase chain reaction as previously described (Tallant et al., Am. J. Physiol. Heart Circ. Physiol., 2005, 289:1560-1566). All reactions were performed in triplicate and 18S ribosomal RNA, amplified using the TaqMan Ribosomal RNA Control Kit (Applied Biosystems), served as an internal control. The results were quantified as Ct values, where Ct is defined as the threshold cycle of PCR at which amplified product is first detected, and defined as relative gene expression (the ratio of target/control). For RT-PCR, total RNA was isolated using the Atlas Pure Total RNA Labeling System (Clontech Laboratories, Inc). The RNA concentration was quantified by UV spectroscopy and any degradation assessed by ethidium bromide staining intensity of 28S and 18S ribosomal RNA following agarose gel electrophoresis. […] Following PCR, the amplification products were separated by polyacrylamide gel electrophoresis, visualized by autoradiography, and analyzed using the MCID imaging system.
Proteins were separated electrophoretically on SDS polyacrylamide gels, transferred to polyvinyl membranes, and incubated with primary antibodies to proteins of interest. […] The density of each immunoreactive product was quantified using the MCID imaging system. […]

Where [4] appears, read: 24 μg/kg/h intravenous, 28 days, versus saline.
[5] abbreviates: 28 days infusion, versus saline.

Bounds are passed on as bounds.

Consider `CC[C@H](C)[C@H](NC(=O)[C@H](Cc1ccc(O)cc1)NC(=O)[C@@H](NC(=O)[C@H](CCCNC(=N)N)NC(=O)[C@@H](N)CC(=O)O)C(C)C)C(=O)N[C@@H](Cc1c[nH]cn1)C(=O)N1CCC[C@H]1C(=O)O` [Ang-(1-7), Asp-Arg-Val-Tyr-Ile-His-Pro], for which, in data set [1] (24 μg/kg/h intravenous infusion, Ki-ras^G12C mice), the “increase of plasma concentration over saline-infused animals” value stood at 5 fold. Further, in data set [1] (24 μg/kg/h intravenous infusion, Ki-ras^G12C mice, 84 days, n=8, saline 38.7±11.45), the “plasma concentration of the heptapeptide” value was 0.20132 ± 0.099 ng/mL. Further, the level at 2016 h in data set [1] (Ki-ras^G12C, mouse, plasma, iv, 24 ug/kg/h, read-out: plasma concentration of the heptapeptide) is 0.201 ± 0.099 ng/mL. The compound further gave a level at time molar at 1728 h in data set [1] (mouse, plasma, 24 ug/kg/h, 24 μg/kg/h intravenous, 72 days of infusion into mice, n=8, from 0.043±0.013) of 0.224 ± 0.11 nM. Moreover, in data set [2] (setting [4]), the capsular vessel number entry was “no difference”, the “down-regulation in VEGF mRNA in tumor tissue” value is listed as “greater than 50%” and the “reduction in intratumoral vessel formation” value is greater than 75%. For the same compound, the “average tumor volume at end of infusion” value in data set [2] (24 μg/kg/h intravenous, day 28, n=5, saline 326.3±47.2) came to 84.4±19.8 mm^3. Moreover, in data set [2] (24 μg/kg/h, 28 days), the “body weight, food and water consumption during infusion” value is “maintained their body weight as well as food and water consumption”; the “gross pathology of major organs following sacrifice” value is recorded as “no gross pathological abnormalities”. Besides, in data set [2] (setting [5]), the “APAF mRNA in tumor tissue” value is listed as “significant increase” and the “caspase 3 mRNA in tumor tissue” value is listed as “significant increase”. Besides, the “COX-2 protein, density of COX-2 immunoreactivity as a function of actin” value in data set [2] (Western blot of tumor tissue, n=5, saline 0.99±0.12) is 0.41±0.09. Also, the “tumor weight less than saline-infused” value in data set [2] (at sacrifice, day 28) was found to be 50%. In addition, the tumor weight in data set [2] (at sacrifice, day 28, n=5, saline 0.28±0.03) worked out at 0.13 ± 0.01 g. The “proportion of apoptotic nuclei (cleaved caspase 3)” value in data set [2] (intravenous infusion, n=4-5, saline 18.8±9.4%) is on record as 75±4.6%. Moreover, the “proportion of proliferating cells (Ki67)” value in data set [2] (n=5, saline 73±[…]) stood at 49.5±9.4%. For the same compound, the “reduction of COX-2 protein” value in data set [2] (tumor tissue, versus saline) is 59%. Also, the “decrease in COX-2 mRNA” value in data set [2] (tumor xenografts, RT real-time PCR, versus saline) is given as 57%. In data set [3], the “MEK5 mRNA and protein” value is “reduced”.
